# According to patent publication US20040106578A1, “Fungicidal compositions based on pyridylmethylbenzamide derivatives and at least one complex III inhibiting compound” (priority 2001, published 2004):
# System: Plasmopara viticola
# Test: Test of a composition against vine downy mildew, preventive action, on grapevine plants
# Assay type: in vivo
# Conditions: grapevine var. Chardonnay sprayed 3 days before inoculation, evaluated 7 days after contamination, Abbott formula, untreated control 90% sporulated surface
# Protocol: Test of a Composition Against Vine Downy Mildew (Plasmopara Viticola; Preventive Action)
# Grapevine plants are grown (var. Chardonnay) on sandy soil in plastic pots, with one plant per pot. The plants which are two months old (6 to 7 developed leaves) are sprayed with compound (I) and compound (II), either alone, or as a mixture.
# The fungicidal active ingredients, either alone, or as a mixture, are applied at a dose equivalent to 500 litres/ha.
# The compound (I)/compound (II) ratio studied is 1/2.
# Three days after the treatment, each plant is inoculated by spraying an aqueous suspension of Plasmopara viticola sporangia obtained from contaminated leaves. The sporangium concentration is about 100 000 units per ml.
# After contamination, the plants are incubated for two days at 18° C. under a saturated atmosphere, and then for 5 days at about 20° C. with a relative humidity of 90-100%.
# Seven days after the contamination, the symptoms are evaluated in terms of underside surface of the leaves which are infected, compared with the untreated but contaminated plants.
# The efficacy of the treatment is calculated using the following Abbott formula: [formula]
# The concentrations of the fungicides, alone or as a mixture, giving 50%, 70% or 90% efficacy for each component, in the appropriate test, are determined based on the dose/response sigmoid curve model and their corresponding confidence intervals. […]
SMILES,Efficacy (%) (5 mg/l),Efficacy (%) (10 mg/l)
"O=C(NCc1ncc(C(F)(F)F)cc1Cl)c1c(Cl)cccc1Cl [Compound (Ia), 2,6-dichloro-N-{[3-chloro-5-(trifluoromethyl)-2-pyridinyl]methyl}benzamide]",40,
"CSC1=N[C@@](C)(c2ccccc2)C(=O)N1Nc1ccccc1 [Fenamidone, (S)-1-anilino-4-methyl-2-methylthio-4-phenylimidazolin-5-one]",,72
